biological target: T1, Or69aB (Drosophila melanogaster, UniProt P82985); experiment: single sensillum recording, empty ab3A neuron; assay type: cell-based; details: 10 ug on filter paper, 0.5 s puff; activation (agonist)
T1 construct: gene Or69a; full ORF cloned from antennal cDNA into pUAS.g-HA.attB; expressed in Dhalo ab3A empty neurons (Or22a-Gal4), endogenous Orco; with Odorant receptor coreceptor
T1 sequence (P82985 1-393): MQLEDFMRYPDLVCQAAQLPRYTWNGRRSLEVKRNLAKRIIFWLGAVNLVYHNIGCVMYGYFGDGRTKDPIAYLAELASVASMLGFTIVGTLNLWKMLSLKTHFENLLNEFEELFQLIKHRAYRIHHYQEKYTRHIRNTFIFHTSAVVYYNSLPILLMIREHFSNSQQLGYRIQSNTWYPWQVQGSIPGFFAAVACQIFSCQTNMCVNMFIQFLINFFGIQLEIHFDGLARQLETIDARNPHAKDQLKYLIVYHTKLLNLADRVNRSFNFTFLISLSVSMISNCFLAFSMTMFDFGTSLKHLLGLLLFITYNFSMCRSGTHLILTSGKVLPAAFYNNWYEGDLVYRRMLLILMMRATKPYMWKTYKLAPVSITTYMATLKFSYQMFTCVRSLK
T1 sequence (Q9VNB5 1-486 partner): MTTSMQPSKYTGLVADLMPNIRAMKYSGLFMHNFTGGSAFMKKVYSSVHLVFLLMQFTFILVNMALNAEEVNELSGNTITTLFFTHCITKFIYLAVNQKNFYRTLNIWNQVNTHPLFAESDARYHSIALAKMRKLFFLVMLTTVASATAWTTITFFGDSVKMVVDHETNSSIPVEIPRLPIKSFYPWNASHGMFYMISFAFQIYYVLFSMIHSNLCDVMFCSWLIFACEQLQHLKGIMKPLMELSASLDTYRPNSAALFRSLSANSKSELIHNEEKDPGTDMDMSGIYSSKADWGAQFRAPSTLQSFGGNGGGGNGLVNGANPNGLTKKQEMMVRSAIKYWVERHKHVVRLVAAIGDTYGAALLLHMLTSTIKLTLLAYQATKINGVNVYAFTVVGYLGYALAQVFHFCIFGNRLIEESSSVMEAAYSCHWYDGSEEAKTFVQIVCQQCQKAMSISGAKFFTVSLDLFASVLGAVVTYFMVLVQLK

Structure (SMILES)	SSR response (spikes/s)
C=C(C)[C@H]1CC=C(C)C(=O)C1 [(S)-carvone]	Or69aB responds best to both isomers of carvone
C=C(C)[C@@H]1CC=C(C)C(=O)C1 [compound 8, (R)-carvone]	(R)-carvone, which elicited the strongest Or69aB response
CCCCCC/C=C\CCC=O [compound 10, (Z)-4-undecenal]	Or69aB responds best to both isomers of carvone, followed by Z4-11Al

biological target: T2, Or69aA (Drosophila melanogaster, UniProt Q9VU27); experiment: single sensillum recording, empty ab3A neuron; assay type: cell-based; details: 10 ug on filter paper, 0.5 s puff; activation (agonist)
T2 construct: gene Or69a; full ORF cloned from antennal cDNA into pUAS.g-HA.attB; expressed in Dhalo ab3A empty neurons (Or22a-Gal4), endogenous Orco; with Odorant receptor coreceptor
T2 sequence (Q9VU27 1-393): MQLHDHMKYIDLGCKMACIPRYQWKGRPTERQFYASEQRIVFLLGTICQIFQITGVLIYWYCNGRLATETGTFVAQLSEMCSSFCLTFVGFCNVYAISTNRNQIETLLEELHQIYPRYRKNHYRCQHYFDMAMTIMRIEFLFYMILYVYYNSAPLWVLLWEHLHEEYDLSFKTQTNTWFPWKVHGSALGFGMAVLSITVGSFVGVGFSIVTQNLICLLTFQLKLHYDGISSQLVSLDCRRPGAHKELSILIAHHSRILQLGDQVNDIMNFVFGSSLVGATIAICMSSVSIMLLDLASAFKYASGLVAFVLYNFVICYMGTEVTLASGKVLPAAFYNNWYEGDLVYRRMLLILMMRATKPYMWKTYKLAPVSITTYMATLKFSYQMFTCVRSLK
T2 sequence (Q9VNB5 1-486 partner): T1 sequence (Q9VNB5 1-486 partner)

Structure (SMILES)	SSR response (spikes/s)
C=C[C@@](C)(O)CCC=C(C)C [(S)-linalool]	The most active ligands (S)-α-terpineol and (S)- and (R)-linalool
CC1=CC[C@@H](C(C)(C)O)CC1 [compound 1, (S)-α-terpineol]	The most active ligands (S)-α-terpineol and (S)- and (R)-linalool
C=C[C@](C)(O)CCC=C(C)C [compound 4, (R)-linalool]	The most active ligands (S)-α-terpineol and (S)- and (R)-linalool

From paper PMC5622430, “A Drosophila female pheromone elicits species-specific long-range attraction via an olfactory channel with dual specificity for sex and food” (BMC Biology, 2017)
